Data set [1] is described as follows: Anticonvulsant activity (AcA), method of Zobrist et al. Format: in vivo. The arrangement: key: 0 being no observed activity; 5 being the most active. As to conditions: scale from 0 to 5. As for the experimental part:
Anticonvulsant activity (AcA) was determined generally by the method of Zobrist et al., European Patent Application EP.... (our ref.: A 634 EP) entitled, "BENZOTHZAZEPINE ANTI-SEIZURE METHOD," and filed on even date herewith; see also US-A-4,879,289.

Data set [2] in a line: Cardiovascular activity (CvA), isolated tissue. To be noted: scale from 0 to 5. As for the experimental part: Cardovascular activity (CvA) was determined by the use of isolated tissue.
Data set [3] in a line: Anti-depressant activity (AdA), visual observation. It counts as in vivo. As to conditions: scale from 0 to 5. As for the experimental part: Anti-depressant activity (AdA) was determined by visual observation.
For data set [4], the system named is VCR-resistant cell line. As to conditions: nontoxic concentration of diltiazem hydrochloride; cited from earlier work.

Data on 6 compounds can be found in EP0433683A2, “Use of benzothiazepines as potentiators of anti-cancer drugs” (MARION MERRELL DOW INC., priority 1989, dated 1991).

Each structure is given as a SMILES string. Where a name gives a salt, the structure may show the parent alone.

`COc1ccc([C@H]2Sc3ccccc3N(CCN(C)C)C(=O)[C@H]2OC(C)=O)cc1` [l-cis-DTZ]: the AcA in data set [1] was determined as 3.
In data set [1], `CCCCC(=O)O[C@H]1C(=O)N(CCN(C)C)c2ccccc2S[C@H]1c1ccc(OC)cc1.O=C(O)/C=C/C(=O)O` [d-cis-ML1013] came in with an AcA of 0. For the same compound, the CvA in data set [2] was found to be 1.
The matching figures for `COc1ccc([C@@H]2Sc3ccccc3N(CCN(C)C)C(=O)[C@@H]2OC(=O)CC(C)C)cc1.O=C(O)/C=C/C(=O)O` [d-cis-ML1014]: 1 and 1.
Consider `COc1ccc([C@@H]2Sc3ccccc3N(CCN(C)C)C(=O)[C@@H]2OC(C)=O)cc1` [Diltiazem, d-cis-5-[2-(dimethylamino)ethyl]-2,3-dihydro-3-hydroxy-2-(4-methoxyphenyl)-1,5-benzothiazepin-4(5H)-one acetate (ester), reference compound], for which the AcA in data set [1] was 5. The AdA in data set [3] is listed as 2.
In turn, `COc1ccc([C@@H]2Sc3ccccc3N(CCN(C(C)C)C(C)C)C(=O)[C@@H]2OC(C)=O)cc1.Cl` [d-cis-ML1016] gave an AcA in data set [1] of 5. Besides, in data set [3], the AdA stood at 1. Also, the CvA in data set [2] was determined as 2.
As to `COc1ccc([C@@H]2Sc3ccccc3N(CCN(C)C)C(=O)[C@@H]2OC(C)=O)cc1` [diltiazem hydrochloride, Diltiazem hydrochloride], the “increase in vincristine (VCR) cytotoxicity” value in data set [4] is listed as 54 fold.
